Assay results: patent US12259384B2, “Membrane and droplet-interface bilayer systems and methods” (University of Massachusetts, priority 2015, dated 2025)

Biological target: α-hemolysin (Staphylococcus aureus, UniProt P09616)
Assay type: biochemical

α-hemolysin, sequence (P09616 27-319 limits assumed): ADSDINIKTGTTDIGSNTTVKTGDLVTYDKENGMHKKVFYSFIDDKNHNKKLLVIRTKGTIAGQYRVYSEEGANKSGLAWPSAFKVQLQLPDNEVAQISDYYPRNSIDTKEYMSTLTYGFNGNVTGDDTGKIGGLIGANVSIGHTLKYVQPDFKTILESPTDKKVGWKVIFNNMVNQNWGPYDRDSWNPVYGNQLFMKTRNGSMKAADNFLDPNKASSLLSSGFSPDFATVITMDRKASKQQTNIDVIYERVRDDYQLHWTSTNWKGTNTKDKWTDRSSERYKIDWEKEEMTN

## OC[C@H]1O[C@@H]2O[C@H]3[C@H](O)[C@@H](O)[C@@H](O[C@H]4[C@H](O)[C@@H](O)[C@@H](O[C@H]5[C@H](O)[C@@H](O)[C@@H](O[C@H]6[C@H](O)[C@@H](O)[C@@H](O[C@H]7[C@H](O)[C@@H](O)[C@@H](O[C@H]8[C@H](O)[C@@H](O)[C@@H](O[C@H]9[C@H](O)[C@@H](O)[C@@H](O[C@H]1[C@H](O)[C@H]2O)O[C@@H]9CO)O[C@@H]8CO)O[C@@H]7CO)O[C@@H]6CO)O[C@@H]5CO)O[C@@H]4CO)O[C@@H]3CO [cyclodextrin, γ-Cyclodextrin]
  magnitude and lifetime of the reversible blockades of the α-hemolysin pore: consistent with previous reports
  reversible blockages of the α-hemolysin pores: reversible blockages of the pores by cyclodextrin are observed
